The values that follow come from patent US20170253581A1, “SUBSTITUTED HETEROCYCLES AS c-MYC TARGETING AGENTS” (Northwestern University, priority 2016, published 2017).

For orientation: IC50 means the midpoint of a concentration-inhibition curve.

One assay deals with Myc/Max binding to DNA (Homo sapiens, UniProt P01106). The assay can be described thus: Electrophoretic mobility shift assay (EMSA) of Myc/Max binding to DNA.
Chain of Myc/Max binding to DNA (P01106 whole entry): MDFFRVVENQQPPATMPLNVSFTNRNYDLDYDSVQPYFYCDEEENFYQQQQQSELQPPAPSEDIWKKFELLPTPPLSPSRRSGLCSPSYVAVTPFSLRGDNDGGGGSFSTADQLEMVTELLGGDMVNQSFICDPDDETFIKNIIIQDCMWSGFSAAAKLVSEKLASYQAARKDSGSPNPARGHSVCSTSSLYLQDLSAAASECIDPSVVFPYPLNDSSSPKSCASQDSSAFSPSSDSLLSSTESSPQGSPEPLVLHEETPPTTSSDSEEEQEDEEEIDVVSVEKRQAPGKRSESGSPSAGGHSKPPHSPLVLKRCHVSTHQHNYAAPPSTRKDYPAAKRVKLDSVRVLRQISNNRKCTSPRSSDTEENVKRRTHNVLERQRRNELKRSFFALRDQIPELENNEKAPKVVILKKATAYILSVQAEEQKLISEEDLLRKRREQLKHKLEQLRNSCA
Conditions: not given
The assay is classed as biochemical. As for the experimental part:
We also tested our best hit compound Min9 (NUCC-0176234) and newly synthesized analogs for effects of these compounds on Myc/Max binding to DNA in electrophoretic mobility shift assays (EMSAs). (See FIG. 5a and FIG. 5b). We expected the active compounds to impair Myc/Max binding to DNA. Several strucutural analogs of Min9 were tested over multiple doses for inhibiting Myc-DNA binding and we observed a dose-dependent inhibition. (See FIG. 5c).
Additional compounds were synthesized and tested in the EMSA assay at concentrations of 200 μM, 100 μM, and 50 μM.
Background: A gel shift assay detects complexes by their altered migration in electrophoresis.
For `CCc1ccc(Oc2c(-c3ccc(OCCc4cccc(C(F)(F)F)c4)cc3O)n[nH]c2C(F)(F)F)cc1` [NUCC-0176245], the IC50 came out at 95 µM.
For `COc1ccc(-c2c(-c3ccc(OCc4ccc(Cl)cc4)cc3O)n[nH]c2C(F)(F)F)cc1OC` [compound 0196283], the IC50 amounted to 49 µM.
Same read-out and setting: for `CCc1ccc(Oc2c(-c3ccc(OCc4cccc(Cl)c4)cc3O)n[nH]c2C(F)(F)F)cc1` [compound 0196295] the value was 66 µM; for `Cn1cc(Oc2ccccc2Cl)c(-c2ccc(OCc3ccc(Cl)cc3)cc2O)n1` [compound 0196305], 39 µM.

The assay is the same for the next values; noted with them: EMSA, 100 uM test compound; read-out: Bound DNA (%) (100uM).
`CCc1ccc(Oc2c(-c3ccc(OCCc4cccc(C(F)(F)F)c4)cc3O)n[nH]c2C(F)(F)F)cc1` [NUCC-0176245]: the remaining activity at 100 µM came to 36%.
The same measure, in the same setting: as for `CCc1ccc(Oc2c(-c3ccc(OCc4ccc(Cl)cc4)cc3O)n[nH]c2CC)cc1` [compound 0196282], the figure is 87%; as for `COc1ccc(-c2c(-c3ccc(OCc4ccc(Cl)cc4)cc3O)n[nH]c2C(F)(F)F)cc1OC` [compound 0196283], 4%; as for `Cc1ccc(C)c(Oc2c[nH]nc2-c2ccc(OCc3ccc(Cl)cc3)cc2O)c1` [compound 0196284], 59%.
On to `Cc1ccc(C)c(Oc2cn(C)nc2-c2ccc(OCc3ccc(Cl)cc3)cc2O)c1` [compound 0196285], for which the remaining activity at 100 µM amounted to 118%.
The same measure, in the same setting: for `Cc1ccc(C)c(Oc2c[nH]nc2-c2ccc(OCc3cccc(Cl)c3)cc2O)c1` [compound 0196286] the value was 65%; for `Cc1ccc(C)c(Oc2cn(C)nc2-c2ccc(OCc3cccc(Cl)c3)cc2O)c1` [compound 0196287], 115%; for `COc1cccc(COc2ccc(-c3n[nH]cc3Oc3cc(C)ccc3C)c(O)c2)c1` [compound 0196288], 81%.
On the same count and under the same terms, as for `COc1cccc(COc2ccc(-c3nn(C)cc3Oc3cc(C)ccc3C)c(O)c2)c1` [compound 0196289], the figure is 136%; as for `Cc1ccc(C)c(Oc2c[nH]nc2-c2ccc(OCc3ccc4ccccc4c3)cc2O)c1` [compound 0196290], 92%; as for `Cc1ccc(C)c(Oc2cn(C)nc2-c2ccc(OCc3ccc4ccccc4c3)cc2O)c1` [compound 0196291], 110%.
The same measure, in the same setting: as for `CCc1ccc(Oc2c(-c3ccc(OCc4ccc(Cl)cc4)cc3O)nn(C)c2CC)cc1` [compound 0196294], the figure is 106%; as for `CCc1ccc(Oc2c(-c3ccc(OCc4cccc(Cl)c4)cc3O)n[nH]c2C(F)(F)F)cc1` [compound 0196295], 12%; as for `CCc1ccc(Oc2c(-c3ccc(OCc4cccc(Cl)c4)cc3O)nn(C)c2C(F)(F)F)cc1` [compound 0196296], 73%.
In the case of `CCc1ccc(Oc2c(-c3ccc(OCc4cccc(OC)c4)cc3O)n[nH]c2C(F)(F)F)cc1` [compound 0196297], the remaining activity at 100 µM amounted to 45%.
Regarding `CCc1ccc(Oc2c(-c3ccc(OCc4cccc(OC)c4)cc3O)nn(C)c2C(F)(F)F)cc1` [compound 0196298], the remaining activity at 100 µM amounted to 98%.
Take `Cc1ccc(C)c(Oc2cn(C)nc2-c2ccc(OCCN3CCCCC3)cc2O)c1` [compound 0196299]: the remaining activity at 100 µM stood at 138%.
Still for that read-out and setting: for `Oc1cc(OCc2ccc(Cl)cc2)ccc1-c1n[nH]c(C(F)(F)F)c1Oc1cccc(F)c1` [compound 0196301] the value was 43%; for `Cn1nc(-c2ccc(OCc3ccc(Cl)cc3)cc2O)c(Oc2cccc(F)c2)c1C(F)(F)F` [compound 0196302], 65%; for `Oc1cc(OCc2ccc(Cl)cc2)ccc1-c1n[nH]cc1Oc1ccc(Cl)cc1` [compound 0196303], 72%.
`Cn1nc(-c2ccc(OCc3ccc(Cl)cc3)cc2O)c(Oc2ccccc2Cl)c1C(F)(F)F` [compound 0196304]: the remaining activity at 100 µM is 13%.
On the same count and under the same terms, for `Cn1cc(Oc2ccccc2Cl)c(-c2ccc(OCc3ccc(Cl)cc3)cc2O)n1` [compound 0196305] the value was 3%.
For `COc1ccc(-c2c(-c3ccc(OCc4ccc(Cl)cc4)cc3O)noc2C(F)(F)F)cc1OC` [compound 0196306], the remaining activity at 100 µM is 71%.
Take `COc1ccc(-c2c(-c3ccc(OCc4ccc(Cl)cc4)cc3O)nn(C)c2C(F)(F)F)cc1OC` [compound 0196311]: the remaining activity at 100 µM was 94%.
On the same count and under the same terms, for `COc1ccc(-c2c(-c3ccc(OCc4ccc(Cl)cc4)cc3O)n[nH]c2C(F)(F)F)cc1` [compound 0196312] the value was 51%.
For the compound `Oc1cc(OCc2ccc(Cl)cc2)ccc1-c1cc(C(F)(F)F)[nH]n1` [compound 0196313], the remaining activity at 100 µM stood at 1%.
Turning to `Cn1nc(-c2ccc(OCc3ccc(Cl)cc3)cc2O)cc1C(F)(F)F` [compound 0196314], the remaining activity at 100 µM is 76%.
In the case of `COc1ccc(-c2c(-c3ccc(OCc4ccc(Cl)cc4)cc3O)nn(C)c2C(F)(F)F)cc1` [compound 0196340], the remaining activity at 100 µM is 35%.
Regarding `Cn1nc(-c2ccc(OCCN3CCOCC3)cc2O)c(Oc2ccccc2Cl)c1C(F)(F)F` [compound 0196341], the remaining activity at 100 µM was determined as 154%.
As to `Oc1cc(OCc2ccc(Cl)cc2)ccc1-c1n[nH]c(C(F)(F)F)c1Oc1ccccc1Cl` [compound 0196342], the remaining activity at 100 µM amounted to 1%.

Staying with this assay, now noted: EMSA, 200 uM test compound.
In the case of `CCc1ccc(Oc2c[nH]nc2-c2ccc(OCC3CCCCC3)cc2O)cc1` [NUCC-0176256], the “Bound DNA (%) (200uM)” value amounted to 100%.

Staying with this assay, now noted: EMSA, 200 uM test compound; read-out: Bound DNA (%) (200uM).
Turning to `CCc1ccc(Oc2c[nH]nc2-c2ccc(OCc3ccc(Cl)cc3)cc2O)cc1` [NUCC-0176243], the remaining activity at 200 µM was 19%.
Still for that read-out and setting: as for `CCc1ccc(Oc2c[nH]nc2-c2ccc(OCc3ccc(C(F)(F)F)cc3)cc2O)cc1` [NUCC-0176244], the figure is 20%; as for `CCc1ccc(Oc2c(-c3ccc(OCCc4cccc(C(F)(F)F)c4)cc3O)n[nH]c2C(F)(F)F)cc1` [NUCC-0176245], 0%.
On the same count and under the same terms, as for `CCc1ccc(Oc2c[nH]nc2-c2ccc(OCc3cnn(C)c3)cc2O)cc1` [NUCC-0176246], the figure is 87%; as for `Oc1cc(OCc2ccc(Cl)cc2)ccc1-c1n[nH]cc1Oc1ccccc1` [NUCC-0176247], 18%; as for `Cc1[nH]nc(-c2ccc(OCc3cnn(C)c3)cc2O)c1Oc1ccccc1` [NUCC-0176249], 85%.
The same measure, in the same setting: for `Oc1cc(OCc2ccncc2)ccc1-c1n[nH]cc1Oc1ccccc1` [NUCC-0176251] the value was 62%.
Turning to `Cc1[nH]nc(-c2ccc(OCc3ccncc3)cc2O)c1Oc1ccccc1` [NUCC-0176252], the remaining activity at 200 µM came to 87%.
Consider `Cc1[nH]nc(-c2ccc(OCc3ccc(Cl)cc3)cc2O)c1Oc1ccccc1` [NUCC-0176253], for which the remaining activity at 200 µM came to 39%.
As to `CCc1ccc(Oc2c[nH]nc2-c2ccc(OCc3ccncc3)cc2O)cc1` [NUCC-0176254], the remaining activity at 200 µM amounted to 101%.
Regarding `Oc1cc(OCc2ccccc2)ccc1-c1n[nH]cc1Oc1ccccc1` [NUCC-0176255], the remaining activity at 200 µM is 11%.
The same measure, in the same setting: as for `CCc1ccc(Oc2c[nH]nc2-c2ccc(OCc3ccc(F)cc3)cc2O)cc1` [NUCC-0176257], the figure is 7%; as for `CCc1ccc(Oc2c[nH]nc2-c2ccc(OCCc3ccc(F)cc3)cc2O)cc1` [NUCC-0176258], 17%.
On the same count and under the same terms, as for `Cc1[nH]nc(-c2ccc(OCc3ccc(F)cc3)cc2O)c1Oc1ccccc1` [NUCC-0176259], the figure is 26%; as for `CCc1ccc(Oc2cn(C)nc2-c2ccc(OCc3ccc(Cl)cc3)cc2O)cc1` [NUCC-0176260], 113%; as for `CCc1ccc(Oc2c[nH]nc2-c2ccc(OCCc3ccc(Cl)cc3)cc2O)cc1` [NUCC-0176261], 25%.
Still for that read-out and setting: for `Cc1[nH]nc(-c2ccc(OCCc3ccc(Cl)cc3)cc2O)c1Oc1ccccc1` [NUCC-0176262] the value was 54%.

The assay is the same for the next values; noted with them: Table 1; concentration not printed in the table (FIG. 5 and 6 legends: 200 μM test compounds).
As for `CCc1ccc(Oc2c[nH]nc2-c2ccc(OCC3CCCCC3)cc2O)cc1` [NUCC-0176256], the “% Fraction Bound” value stood at 9.1%.
